In the CheMixHub viscosity set:
Where “and” joins values, the source holds several entries; their conditions need not be identical. Equal values may be shown once.

Experiment: xn = mol fraction of the nth substance listed

CCCCCC + Cc1ccccc1
Conditions | viscosity
298.15 K, 101 kPa, x1 = 0.1 | 0.5021 mPa·s
298.15 K, 101 kPa, x1 = 0.121 | 0.504 mPa·s
298.15 K, 101 kPa, x1 = 0.2 | 0.4602 mPa·s
298.15 K, 101 kPa, x1 = 0.211 | 0.471 mPa·s
298.15 K, 101 kPa, x1 = 0.299 | 0.443 mPa·s
298.15 K, 101 kPa, x1 = 0.3 | 0.4254 mPa·s
298.15 K, 101 kPa, x1 = 0.4 | 0.3964 mPa·s
298.15 K, 101 kPa, x1 = 0.5 | 0.372 mPa·s
298.15 K, 101 kPa, x1 = 0.6 | 0.3513 mPa·s and 0.37 mPa·s
298.15 K, 101 kPa, x1 = 0.7 | 0.3336 mPa·s
298.15 K, 101 kPa, x1 = 0.712 | 0.349 mPa·s
298.15 K, 101 kPa, x1 = 0.799 | 0.335 mPa·s
298.15 K, 101 kPa, x1 = 0.8 | 0.3186 mPa·s
298.15 K, 101 kPa, x1 = 0.9 | 0.3059 mPa·s
298.15 K, 101 kPa, x2 = 0.1483 | 0.321 mPa·s
298.15 K, 101 kPa, x2 = 0.1826 | 0.333 mPa·s
298.15 K, 101 kPa, x2 = 0.2169 | 0.34 mPa·s
298.15 K, 101 kPa, x2 = 0.2524 | 0.348 mPa·s
298.15 K, 101 kPa, x2 = 0.2897 | 0.36 mPa·s
298.15 K, 101 kPa, x2 = 0.3286 | 0.366 mPa·s
298.15 K, 101 kPa, x2 = 0.3707 | 0.377 mPa·s
298.15 K, 101 kPa, x2 = 0.4105 | 0.3865 mPa·s
298.15 K, 101 kPa, x2 = 0.4556 | 0.3985 mPa·s
298.15 K, 101 kPa, x2 = 0.5039 | 0.4115 mPa·s
298.15 K, 101 kPa, x2 = 0.552 | 0.426 mPa·s
298.15 K, 101 kPa, x2 = 0.6002 | 0.44 mPa·s
298.15 K, 101 kPa, x2 = 0.6539 | 0.457 mPa·s
298.15 K, 101 kPa, x2 = 0.6976 | 0.471 mPa·s
298.15 K, 101 kPa, x2 = 0.7444 | 0.486 mPa·s
298.23 K, 100 kPa, x1 = 0.5 | 0.3708 mPa·s
298.28 K, 100 kPa, x1 = 0.25 | 0.4404 mPa·s
298.3 K, 100 kPa, x1 = 0.75 | 0.3227 mPa·s
303.15 K, 101.33 kPa, x1 = 0.0826 | 0.4983 mPa·s
303.15 K, 101.33 kPa, x1 = 0.1685 | 0.4637 mPa·s
303.15 K, 101.33 kPa, x1 = 0.2578 | 0.4362 mPa·s
303.15 K, 101.33 kPa, x1 = 0.3509 | 0.4117 mPa·s
303.15 K, 101.33 kPa, x1 = 0.4477 | 0.3884 mPa·s
303.15 K, 101.33 kPa, x1 = 0.5487 | 0.3671 mPa·s
303.15 K, 101.33 kPa, x1 = 0.6541 | 0.3492 mPa·s
303.15 K, 101.33 kPa, x1 = 0.7643 | 0.3299 mPa·s
303.15 K, 101.33 kPa, x1 = 0.8795 | 0.3136 mPa·s
308.15 K, 101 kPa, x1 = 0.121 | 0.448 mPa·s
308.15 K, 101 kPa, x1 = 0.211 | 0.42 mPa·s
308.15 K, 101 kPa, x1 = 0.299 | 0.395 mPa·s
308.15 K, 101 kPa, x1 = 0.448 | 0.361 mPa·s
308.15 K, 101 kPa, x1 = 0.6 | 0.332 mPa·s
308.15 K, 101 kPa, x1 = 0.712 | 0.314 mPa·s
308.15 K, 101 kPa, x1 = 0.799 | 0.302 mPa·s
313.15 K, 101.33 kPa, x1 = 0.0826 | 0.4542 mPa·s
313.15 K, 101.33 kPa, x1 = 0.1685 | 0.4265 mPa·s
313.15 K, 101.33 kPa, x1 = 0.2578 | 0.4033 mPa·s
313.15 K, 101.33 kPa, x1 = 0.3509 | 0.3782 mPa·s
313.15 K, 101.33 kPa, x1 = 0.4477 | 0.3592 mPa·s
313.15 K, 101.33 kPa, x1 = 0.5487 | 0.3375 mPa·s
313.15 K, 101.33 kPa, x1 = 0.6541 | 0.3202 mPa·s
313.15 K, 101.33 kPa, x1 = 0.7643 | 0.3043 mPa·s
313.15 K, 101.33 kPa, x1 = 0.8795 | 0.2896 mPa·s
323.15 K, 101 kPa, x1 = 0.121 | 0.382 mPa·s
323.15 K, 101 kPa, x1 = 0.211 | 0.36 mPa·s
323.15 K, 101 kPa, x1 = 0.299 | 0.341 mPa·s
323.15 K, 101 kPa, x1 = 0.448 | 0.314 mPa·s
323.15 K, 101 kPa, x1 = 0.6 | 0.292 mPa·s
323.15 K, 101 kPa, x1 = 0.712 | 0.278 mPa·s
323.15 K, 101 kPa, x1 = 0.799 | 0.255 mPa·s
323.15 K, 101.33 kPa, x1 = 0.0826 | 0.4006 mPa·s
323.15 K, 101.33 kPa, x1 = 0.1685 | 0.3747 mPa·s
323.15 K, 101.33 kPa, x1 = 0.2578 | 0.3545 mPa·s
323.15 K, 101.33 kPa, x1 = 0.3509 | 0.3354 mPa·s
323.15 K, 101.33 kPa, x1 = 0.4477 | 0.3184 mPa·s
323.15 K, 101.33 kPa, x1 = 0.5487 | 0.3022 mPa·s
323.15 K, 101.33 kPa, x1 = 0.6541 | 0.2867 mPa·s
323.15 K, 101.33 kPa, x1 = 0.7643 | 0.2736 mPa·s
323.15 K, 101.33 kPa, x1 = 0.8795 | 0.262 mPa·s

Cc1ccccc1O + CC12CCC(CC1)C(C)(C)O2
viscosity [mPa·s], 101 kPa
Conditions | x2 = 0.0644 | x2 = 0.1341 | x2 = 0.2098 | x2 = 0.2923 | x2 = 0.3825 | x2 = 0.4817 | x2 = 0.5911 | x2 = 0.7125 | x2 = 0.8479
303.15 K | 6.716 | 7.057 | 7.387 | 7.431 | 7.201 | 6.63 | 5.917 | 4.949 | 3.732
308.15 K | 5.48 | 5.76 | 5.997 | 6.081 | 5.929 | 5.628 | 5.058 | 4.201 | 3.201
313.15 K | 4.569 | 4.81 | 4.944 | 5.041 | 5.032 | 4.696 | 4.12 | 3.359 | 2.48

C1CCC2=[NH+]CCCN2CC1.c1nc[n-]n1 + CCO
303.15 K, 100 kPa
Conditions | viscosity [mPa·s]
x1 = 0.1001 | 4.38
x1 = 0.2 | 9.22
x1 = 0.2999 | 22.01
x1 = 0.4003 | 47.32
x1 = 0.4989 | 90.79
x1 = 0.6002 | 174.5
x1 = 0.7008 | 325.1
x1 = 0.7993 | 472.2
x1 = 0.9002 | 830.6
